Measurements published in US7790364B2, “Compositions and methods for high throughput screening of pharmacological chaperones” (The Board of Trustees of the Leland Stanford Junior …, priority 2006, dated 2010).

Assays:
Format in all cases: cell-based
4S-ΔF508 CFTR [1] = target: T1, 4S-ΔF508 CFTR (Homo sapiens, UniProt P13569, DEL508-508/INS895[…]); assay: RNAase S complementation screening assay on 4S-ΔF508 CFTR expressing CHO cells; settings: LOPAC1280 library screen
T1 construct: antibodies against the CFTR C-terminus to test for complete open reading frame; 4 x S-tag (KETAAAKFERQHMDS) with GGGG spacers, in the 4th extracellular loop; expressed in transfected cells
Description: Optimize conditions for homogeneous cell-based assay for ΔF508-CFTR rescue. Surface detection of S-protein tagged CFTR used reconstitution of RNAase S activity and detection with the fluorogenic probe 6-F-dArUdAdA-6-TMR.
Screening was carried out on a customized apparatus (SAGIAN, Beckman) containing a 3-m rail Optimized Robot for Chemical Analysis that integrates the following robot-accessible instruments on a 4×2-m optical table: (a) SAGIAN 180 CO2 incubator, which holds 180 standard microplates in a storage carousel; (b) Elx405-Select plate washer with valve option and vacuum-sensing/waste alert for complex automated wash cycles; (c) SAGIAN MPS-8 CS incubator (holds eight standard microplates at 4-37±1° C.); […] SAGIAN shaker (six plate positions, frequency range 40-1100 rpm with variable amplitude); (e) Biomek 2000 liquid handling work station (installed with four positions to hold tip boxes with automatic air locks and six positions for microplates and liquid reservoirs, and MP 20 and MP 200 8-channel tip tools for liquid transfer); (f) SAGIAN carousel (holding 40 pipette tip boxes and 90 microplates); (g) SAGIAN bar code reader; (h) SAGIAN microplate lidding station with automatic vacuum control of six suction cups; (i) two FluoStar fluorescence plate readers (BMG Lab Technologies), each equipped with two-syringe pumps.
Data collection and analysis. […]

4S-ΔF508 CFTR [2] = target: T1, 4S-ΔF508 CFTR; assay: FACS assay measuring S-tag epitopes at the cell surface with a polyclonal antibody; settings: for surface expression of CFTR (FACS): different concentrations, 1 or 2 days, with or without induction of 4S tag delta F508 expression, compared with 28° C. positive control
Description: The library was screened against 4S-ΔF508 CFTR expressing CHO cells using the assay described in Example 2 above. Each of these compounds was retested using an FACS assay to measure S-tag epitopes at the cell surface with a polyclonal antibody, as shown in FIG. 8.

4S-ΔF508 CFTR [3] = target: T1, 4S-ΔF508 CFTR; assay: Western blotting of CFTR expression in cells exposed to compound; settings: FIG. 10
4S-ΔF508 CFTR [4] = target: T1, 4S-ΔF508 CFTR; assay: Immunofluorescence labeling using polyclonal S-tag antibody; settings: varying doses, FIG. 11

T1 sequence (P13569 with tags, fused parts or gaps DEL508-508/INS895[withheld]): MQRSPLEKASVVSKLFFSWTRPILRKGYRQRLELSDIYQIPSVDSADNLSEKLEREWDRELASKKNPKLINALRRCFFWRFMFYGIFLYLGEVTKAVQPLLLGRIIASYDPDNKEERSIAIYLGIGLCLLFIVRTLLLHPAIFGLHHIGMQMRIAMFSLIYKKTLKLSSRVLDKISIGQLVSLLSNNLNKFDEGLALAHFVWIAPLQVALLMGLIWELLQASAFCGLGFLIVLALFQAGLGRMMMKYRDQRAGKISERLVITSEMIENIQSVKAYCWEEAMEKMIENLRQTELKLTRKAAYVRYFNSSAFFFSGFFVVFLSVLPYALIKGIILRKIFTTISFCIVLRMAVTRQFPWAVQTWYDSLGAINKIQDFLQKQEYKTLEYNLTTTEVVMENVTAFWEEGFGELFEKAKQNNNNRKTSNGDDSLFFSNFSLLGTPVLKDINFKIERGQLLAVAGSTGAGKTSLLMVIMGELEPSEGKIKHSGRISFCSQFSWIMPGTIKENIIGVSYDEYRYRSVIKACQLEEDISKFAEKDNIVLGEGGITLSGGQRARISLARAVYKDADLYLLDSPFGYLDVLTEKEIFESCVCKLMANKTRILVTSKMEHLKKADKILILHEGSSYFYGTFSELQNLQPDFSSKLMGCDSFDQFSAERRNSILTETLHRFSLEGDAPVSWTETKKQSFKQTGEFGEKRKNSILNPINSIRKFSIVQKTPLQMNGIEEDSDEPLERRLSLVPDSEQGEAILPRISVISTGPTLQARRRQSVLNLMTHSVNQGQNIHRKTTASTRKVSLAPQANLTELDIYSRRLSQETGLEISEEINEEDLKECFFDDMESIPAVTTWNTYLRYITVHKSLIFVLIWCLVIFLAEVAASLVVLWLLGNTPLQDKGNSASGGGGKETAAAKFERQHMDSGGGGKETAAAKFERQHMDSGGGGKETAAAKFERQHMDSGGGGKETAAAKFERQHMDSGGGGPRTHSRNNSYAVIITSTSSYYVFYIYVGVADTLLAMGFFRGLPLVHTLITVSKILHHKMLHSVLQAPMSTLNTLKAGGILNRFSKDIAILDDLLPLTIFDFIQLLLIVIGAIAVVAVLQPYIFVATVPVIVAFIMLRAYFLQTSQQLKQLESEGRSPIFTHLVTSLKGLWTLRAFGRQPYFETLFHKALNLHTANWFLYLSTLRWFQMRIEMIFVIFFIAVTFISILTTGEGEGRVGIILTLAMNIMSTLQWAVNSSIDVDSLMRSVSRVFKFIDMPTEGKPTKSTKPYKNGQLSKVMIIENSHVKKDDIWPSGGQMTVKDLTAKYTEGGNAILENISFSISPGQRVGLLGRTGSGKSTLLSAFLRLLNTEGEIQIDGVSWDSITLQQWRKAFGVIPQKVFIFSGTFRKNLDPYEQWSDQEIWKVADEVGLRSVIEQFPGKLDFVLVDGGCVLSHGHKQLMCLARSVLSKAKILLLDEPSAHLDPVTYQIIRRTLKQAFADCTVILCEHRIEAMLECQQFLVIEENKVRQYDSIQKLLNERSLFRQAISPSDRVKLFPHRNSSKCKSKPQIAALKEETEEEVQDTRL

**Q.** Which results are given for O=C(/C=C/c1ccc(O)cc1)c1ccc(O)cc1O [Compound 6, 4,2′,4′-trihydroxychalcone]?
**A.** activity in the assays of the invention (4S-ΔF508 CFTR [1]): active; activity in the rescreening assays (4S-ΔF508 CFTR [2]; FACS, S-tag epitopes at the cell surface): active; surface expression of CFTR (FACS) (4S-ΔF508 CFTR [2]): significant, dose dependent increase; surface expression of CFTR (FACS) (4S-ΔF508 CFTR [2]; listed as isoliquiritigenin): significant and dose-dependent upregulation; expression of the protein assessed by western blotting (4S-ΔF508 CFTR [3]): increased expression; expression by immunofluorescence labeling using polyclonal S-tag antibody (4S-ΔF508 CFTR [4]): increased expression
